From ChEMBL document CHEMBL3351724, “Human α1-adrenoceptor subtype selectivity of substituted homobivalent 4-aminoquinolines” (Bioorg Med Chem, 2014)
Values belong to the molecule of their own block, whether it stands above or below them.

Key:
[1] = target: T1, Alpha-1A adrenergic receptor (Homo sapiens, UniProt P35348); test: Displacement of [3H]-prazosin from human alpha1A adrenergic receptor transfected in COS1 cells; format: cell-based, COS-1
T1 sequence (P35348 whole entry): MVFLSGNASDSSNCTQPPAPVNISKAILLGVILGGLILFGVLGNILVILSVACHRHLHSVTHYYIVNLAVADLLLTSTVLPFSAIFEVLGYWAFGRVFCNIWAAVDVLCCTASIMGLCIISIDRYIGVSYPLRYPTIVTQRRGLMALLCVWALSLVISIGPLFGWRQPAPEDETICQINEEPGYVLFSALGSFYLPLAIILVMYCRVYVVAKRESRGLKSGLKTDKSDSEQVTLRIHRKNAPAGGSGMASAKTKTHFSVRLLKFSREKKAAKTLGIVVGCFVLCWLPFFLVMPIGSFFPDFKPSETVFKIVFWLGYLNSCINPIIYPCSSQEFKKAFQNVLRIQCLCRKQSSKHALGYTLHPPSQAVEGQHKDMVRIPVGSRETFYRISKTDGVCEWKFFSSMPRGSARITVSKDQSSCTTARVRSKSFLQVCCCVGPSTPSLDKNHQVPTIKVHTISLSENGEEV

[2] = target: T1, Alpha-1A adrenergic receptor; test: Binding affinity to human alpha1A adrenergic receptor transfected in COS1 cells assessed as compound required to occupy 50% of receptor; format: cell-based, COS-1
[3] = target: T2, Alpha-1B adrenergic receptor (Homo sapiens, UniProt P35368); test: Displacement of [3H]-prazosin from human alpha1B adrenergic receptor transfected in COS1 cells; format: cell-based, COS-1
T2 sequence (P35368 whole entry): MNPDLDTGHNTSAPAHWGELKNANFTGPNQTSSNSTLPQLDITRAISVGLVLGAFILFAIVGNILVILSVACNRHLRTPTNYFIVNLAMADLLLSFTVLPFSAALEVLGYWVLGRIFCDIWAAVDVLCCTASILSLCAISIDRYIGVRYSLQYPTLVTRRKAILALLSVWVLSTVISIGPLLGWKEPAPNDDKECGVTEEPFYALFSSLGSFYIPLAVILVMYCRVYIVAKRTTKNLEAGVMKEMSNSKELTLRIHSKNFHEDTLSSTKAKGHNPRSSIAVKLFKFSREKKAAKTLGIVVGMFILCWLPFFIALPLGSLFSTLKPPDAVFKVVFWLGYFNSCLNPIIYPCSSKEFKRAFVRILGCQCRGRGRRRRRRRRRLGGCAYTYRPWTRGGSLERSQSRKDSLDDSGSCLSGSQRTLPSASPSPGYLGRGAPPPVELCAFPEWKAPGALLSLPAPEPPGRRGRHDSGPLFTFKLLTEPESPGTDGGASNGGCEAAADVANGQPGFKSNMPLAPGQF

[4] = target: T2, Alpha-1B adrenergic receptor; test: Binding affinity to human alpha1B adrenergic receptor transfected in COS1 cells assessed as compound required to occupy 50% of receptor; format: cell-based, COS-1
[5] = target: T3, Alpha-1D adrenergic receptor (Homo sapiens, UniProt P25100); test: Displacement of [3H]-prazosin from human alpha1D adrenergic receptor transfected in COS1 cells; format: cell-based, COS-1
T3 sequence (P25100 whole entry): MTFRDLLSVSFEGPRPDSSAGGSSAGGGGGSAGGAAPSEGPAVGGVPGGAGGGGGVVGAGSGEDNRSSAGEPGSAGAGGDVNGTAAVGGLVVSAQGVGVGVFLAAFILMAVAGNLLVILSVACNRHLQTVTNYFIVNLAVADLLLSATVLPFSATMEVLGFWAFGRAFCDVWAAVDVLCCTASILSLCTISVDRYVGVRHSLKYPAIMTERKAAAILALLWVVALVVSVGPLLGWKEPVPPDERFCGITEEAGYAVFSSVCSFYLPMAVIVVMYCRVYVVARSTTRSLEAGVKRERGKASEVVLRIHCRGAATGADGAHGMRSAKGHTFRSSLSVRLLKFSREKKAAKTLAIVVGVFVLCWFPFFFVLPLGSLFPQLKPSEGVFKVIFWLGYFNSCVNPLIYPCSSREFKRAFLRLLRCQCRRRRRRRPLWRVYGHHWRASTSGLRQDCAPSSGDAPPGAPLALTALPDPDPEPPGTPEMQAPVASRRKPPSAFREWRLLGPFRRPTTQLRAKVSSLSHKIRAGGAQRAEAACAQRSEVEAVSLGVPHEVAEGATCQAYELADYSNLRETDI

[6] = target: T3, Alpha-1D adrenergic receptor; test: Binding affinity to human alpha1D adrenergic receptor transfected in COS1 cells assessed as compound required to occupy 50% of receptor; format: cell-based, COS-1
[7] = target: T4, 5-hydroxytryptamine receptor 1A (Homo sapiens, UniProt P08908); test: Displacement of [3H]8-OH-DPAT from human 5HT1A receptor transfected in COS1 cells; format: cell-based, COS-1
T4 sequence (P08908 whole entry): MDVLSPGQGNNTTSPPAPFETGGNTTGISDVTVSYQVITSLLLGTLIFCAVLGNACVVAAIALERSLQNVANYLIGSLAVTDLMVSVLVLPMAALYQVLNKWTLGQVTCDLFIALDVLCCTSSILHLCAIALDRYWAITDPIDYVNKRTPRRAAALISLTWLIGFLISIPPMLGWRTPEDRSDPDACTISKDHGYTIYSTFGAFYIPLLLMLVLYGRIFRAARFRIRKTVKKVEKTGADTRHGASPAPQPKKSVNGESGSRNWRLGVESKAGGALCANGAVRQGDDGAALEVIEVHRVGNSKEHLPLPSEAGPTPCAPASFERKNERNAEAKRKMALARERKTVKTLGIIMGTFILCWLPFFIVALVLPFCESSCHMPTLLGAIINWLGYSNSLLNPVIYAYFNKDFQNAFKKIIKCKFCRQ

[8] = target: T4, 5-hydroxytryptamine receptor 1A; test: Binding affinity to human 5HT1A receptor transfected in COS1 cells assessed as compound required to occupy 50% of receptor; format: cell-based, COS-1
Homo sapiens [9] = organism: Homo sapiens; test: Selectivity ratio of Ki for human alpha1B adrenergic receptor to Ki for human alpha1A adrenergic receptor
Homo sapiens [10] = organism: Homo sapiens; test: Selectivity ratio of Ki for human alpha1D adrenergic receptor to Ki for human alpha1A adrenergic receptor
Homo sapiens [11] = organism: Homo sapiens; test: Selectivity ratio of Ki for human 5HT1A receptor to Ki for human alpha1A adrenergic receptor

Structure (SMILES): Cc1ccc2nccc(NCCCCCCCNc3ccnc4ccc(C)cc34)c2c1
- Ki [1]: 617 nM
- Ki [2]: 617 nM
- Ki [3]: 151 nM
- Ki [4]: 151 nM
- Ki [5]: 479 nM
- Ki [6]: 479 nM
- Ki [7]: 1100 nM
- Ki [8]: 1100 nM

Structure (SMILES): COc1cccc2c(NCCNc3ccnc4c(OC)cccc34)ccnc12
- Ki [1]: 195 nM
- Ki [2]: 195 nM
- Ki [3]: 324 nM
- Ki [4]: 324 nM
- Ki [5]: 2000 nM
- Ki [6]: 2000 nM
- Ki [7]: 3090 nM
- Ki [8]: 3090 nM

Structure (SMILES): COc1ccc2nccc(NCCCCCCCNc3ccnc4ccc(OC)cc34)c2c1
- Ki [1]: 316 nM
- Ki [2]: 316 nM
- Ki [3]: 148 nM
- Ki [4]: 148 nM
- Ki [5]: 372 nM
- Ki [6]: 372 nM
- Ki [7]: 1380 nM
- Ki [8]: 1380 nM

Structure (SMILES): c1ccc2c(NCCCCCCCNc3ccnc4ccccc34)ccnc2c1
- Ki [1]: 126 nM
- Ki [2]: 126 nM
- Ki [3]: 148 nM
- Ki [4]: 148 nM
- Ki [5]: 309 nM
- Ki [6]: 309 nM
- Ki [7]: 832 nM
- Ki [8]: 832 nM

Structure (SMILES): Cc1ccc2nccc(NCCNc3ccnc4ccc(C)cc34)c2c1
- Ki [1]: 135 nM
- Ki [2]: 135 nM
- Ki [3]: 19.1 nM
- Ki [4]: 19 nM
- Ki [5]: 490 nM
- Ki [6]: 490 nM
- Ki [7]: 617 nM
- Ki [8]: 617 nM

Structure (SMILES): COc1ccc2c(NCCCCCCCNc3ccnc4cc(OC)ccc34)ccnc2c1
- Ki [1]: 257 nM
- Ki [2]: 257 nM
- Ki [3]: 34.7 nM
- Ki [4]: 35 nM
- Ki [5]: 229 nM
- Ki [6]: 229 nM
- Ki [7]: 2820 nM
- Ki [8]: 2820 nM

These reach a lower Ki [1]. Values come first.

- Ki [1]: 120 nM
- Ki [2]: 120 nM
- Ki [3]: 47.9 nM
- Ki [4]: 48 nM
- Ki [5]: 204 nM
- Ki [6]: 204 nM
- Ki [7]: 3470 nM
- Ki [8]: 3470 nM
Structure (SMILES): Cc1ccc2c(NCCNc3ccnc4cc(C)ccc34)ccnc2c1

- Ki [1]: 26.3 nM
- Ki [2]: 26 nM
- Ki [3]: 28.2 nM
- Ki [4]: 28 nM
- Ki [5]: 331 nM
- Ki [6]: 331 nM
- Ki [7]: 2290 nM
- Ki [8]: 2290 nM
Structure (SMILES): c1ccc2c(NCCNc3ccnc4ccccc34)ccnc2c1

- Ki [1]: 7.41 nM
- Ki [2]: 7 nM
- Ki [3]: 39.8 nM
- Ki [4]: 40 nM
- Ki [5]: 479 nM
- Ki [6]: 479 nM
- Ki [7]: 1170 nM
- Ki [8]: 1170 nM
- Ratio Ki (Homo sapiens [9]): 6
- Ratio Ki (Homo sapiens [10]): 68
- Ratio Ki (Homo sapiens [11]): 168
Structure (SMILES): Cc1cccc2c(NCCNc3ccnc4c(C)cccc34)ccnc12

- Ki [1]: 69.2 nM
- Ki [2]: 69 nM
- Ki [3]: 50.1 nM
- Ki [4]: 50 nM
- Ki [5]: 214 nM
- Ki [6]: 214 nM
- Ki [7]: 891 nM
- Ki [8]: 891 nM
Structure (SMILES): COc1ccc2c(NCCNc3ccnc4cc(OC)ccc34)ccnc2c1

- Ki [1]: 74.1 nM
- Ki [2]: 74 nM
- Ki [3]: 155 nM
- Ki [4]: 155 nM
- Ki [5]: 759 nM
- Ki [6]: 759 nM
- Ki [7]: 603 nM
- Ki [8]: 603 nM
Structure (SMILES): COc1cccc2c(NCCCCCCCNc3ccnc4c(OC)cccc34)ccnc12

- Ki [1]: 112 nM
- Ki [2]: 112 nM
- Ki [3]: 51.3 nM
- Ki [4]: 51 nM
- Ki [5]: 490 nM
- Ki [6]: 490 nM
- Ki [7]: 1260 nM
- Ki [8]: 1260 nM
Structure (SMILES): Cc1ccc2c(NCCCCCCCNc3ccnc4cc(C)ccc34)ccnc2c1
